Assay results reported in patent US20250269091A1, “UTILIZATION OF ELECTROPHORETIC DEPOSITION TO COAT MEDICAL IMPLANTS WITH THERAPEUTIC AGENTS IN A STERILE CLINICAL SETTING” (Rush University Medical Center, priority 2022, published 2025).

Legend:
[1] = test system: S. aureus; details: 4 ml of 1×10^5 CFU/ml S. aureus, 24 hours
Protocol: A gentamicin-loaded chitosan-coated wire was placed in one tube (loaded wire, LW). 0.25 mg gentamicin was added to the second tube (antibiotic control, AC). The third tube contained bacteria only and served as growth control (GC). The tubes were incubated for 24 hours, and the absorbance of the solutions was measured with a spectrophotometer in each tube.

[2] = Gentamicin release from titanium nanotubes, fractional volume sampling; type: physicochemical
Protocol: FIG. 13 illustrates a line graph showing the amount of gentamicin 2300 released from a titanium surface per hour 2400 after a two-step EPD process, as described above. […] Fractional volume sampling was carried out for 3 days. FIG. 15 illustrates the gentamicin concentration in the release solution, and FIG. 16 represents the cumulative release of gentamicin. An initial burst release was observed of around 78% in the first 10 minutes, then gentamicin was released at a slower rate up to 3 days.

[3] = test system: S. aureus Xen36; assay: Minimal inhibitory concentration by broth dilution method; type: cell-based, Staphylococcus aureus; details: against S. aureus Xen36, broth dilution
Protocol: FIGS. 17-20 show tests of the titanium rod of FIG. 3 against Staphylococcus aureus by agar dilution and liquid culture methods. To determine the antimicrobial activity of the loaded wires, S. aureus (Xen36, derived from ATCC 49525) bacteria were cultured overnight at 37° C. in Luria-Bertani medium. The minimal inhibitory concentration of gentamicin was determined by the broth dilution method. In the agar diffusion test, 100 μl of 1×10^6 colony forming units/ml S. aureus solution was inoculated on agar plates and dried. […] The inhibition zones (IZ) 1708, 1710 around the components were measured following 24 hours incubation at 37° C.
In the agar diffusion assay, an elliptical shaped IZ 1708 formed around the loaded wire 1702 (35 mm shorter and 45 mm longer axis).

With gentamicin the “bacterial density (absorbance) compared to growth control” value [1] was “significantly decreased bacterial density”, the “duration of slower release of gentamicin” value ([2]; after the initial burst) was “up to 3 days” and the “drug concentration in release solution relative to MIC” value ([2]; entire period tested (3 days)) was “stayed above the determined minimum inhibitory concentration (MIC)”. For the same substance, the “initial burst release of gentamicin” value ([2]; first 10 minutes, titanium nanotube surface after two-step EPD with gentamicin and chitosan) was “around 78%”, the “cumulative amount of gentamicin detected” value ([2]; release over 3 days, titanium nanotube surface after two-step EPD) was 400 to 550 µg and the MIC [3] was 3.6 µg/mL.
